This is an account of results in publication PMC3021320 (FEBS letters, 2010).

In this experiment the target is T1, Janus kinase 3 (JAK3) (Homo sapiens, UniProt P52333).
T1 sequence (P52333 1-1124): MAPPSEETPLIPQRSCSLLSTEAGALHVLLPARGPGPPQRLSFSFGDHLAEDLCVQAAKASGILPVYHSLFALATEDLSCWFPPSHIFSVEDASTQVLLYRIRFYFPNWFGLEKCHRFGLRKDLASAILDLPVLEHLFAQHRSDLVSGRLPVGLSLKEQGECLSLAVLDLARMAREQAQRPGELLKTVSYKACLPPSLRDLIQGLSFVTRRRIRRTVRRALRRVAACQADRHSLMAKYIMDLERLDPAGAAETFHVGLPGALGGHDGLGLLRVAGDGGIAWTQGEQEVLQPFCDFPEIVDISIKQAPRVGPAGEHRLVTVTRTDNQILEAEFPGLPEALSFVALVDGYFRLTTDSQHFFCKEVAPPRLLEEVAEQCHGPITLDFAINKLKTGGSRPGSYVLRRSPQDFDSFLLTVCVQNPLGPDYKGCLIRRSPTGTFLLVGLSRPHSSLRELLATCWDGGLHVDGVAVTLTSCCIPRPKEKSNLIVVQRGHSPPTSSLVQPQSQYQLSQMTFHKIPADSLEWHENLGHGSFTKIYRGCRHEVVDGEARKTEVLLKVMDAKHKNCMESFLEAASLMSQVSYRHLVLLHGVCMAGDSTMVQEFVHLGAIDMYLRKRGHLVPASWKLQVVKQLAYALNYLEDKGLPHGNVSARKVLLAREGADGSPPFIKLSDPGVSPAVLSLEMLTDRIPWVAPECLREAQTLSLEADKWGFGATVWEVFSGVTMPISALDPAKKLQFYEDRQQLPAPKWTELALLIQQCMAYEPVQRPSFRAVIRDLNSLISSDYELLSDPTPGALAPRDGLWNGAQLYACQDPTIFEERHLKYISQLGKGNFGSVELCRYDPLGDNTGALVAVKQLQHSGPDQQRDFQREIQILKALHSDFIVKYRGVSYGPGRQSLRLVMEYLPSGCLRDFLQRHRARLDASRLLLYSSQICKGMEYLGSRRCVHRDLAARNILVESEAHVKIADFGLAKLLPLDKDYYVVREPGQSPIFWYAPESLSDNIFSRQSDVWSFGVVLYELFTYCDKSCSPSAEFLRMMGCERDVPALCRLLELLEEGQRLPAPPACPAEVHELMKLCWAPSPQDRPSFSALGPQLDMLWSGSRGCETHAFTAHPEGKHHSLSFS
Kind of experiment: kinase assay. Type of experiment: cell-based.

Turning to `O=c1cc(-c2ccc(O)cc2)oc2cc(O)cc(O)c12` [apigenin], the IC50 (usually the concentration that gives 50% inhibition) stood at 1.3 nM.
